Laboratory results published in paper PMC8206213, “An L-2-hydroxyglutarate biosensor based on specific transcriptional regulator LhgR” (Nature Communications, 2021).
Values joined by “and” are separate entries in the source; they are usually repeats but may differ in a detail not shown here. Equal entries are not always repeated.

Test: LHGFR expressed in E. coli BL21(DE3), response to exogenous L-2-HG (time course and dose-response)
Format: cell-based
Details: Fig. 5a
Protocol: To characterize the sensitivity and specificity of LHGFR expressed in E. coli BL21(DE3), 90 μL cell suspensions following 8 h carbon starvation were mixed with 10 μL increasing concentrations of L-2-HG or other compounds, and then added into a black 96-well plate (total 100 μL/per well), the fluorescence intensities were determined using an EnSight microplate reader (PerkinElmer, USA) and the following instrument settings: excitation at 430 nm, emission at 485 nm (mTFP) and 528 nm (Venus), time intervals of 5 min, the temperature at 37 °C, and shake at 180 rpm.

O=C(O)CC[C@H](O)C(=O)O [L-2-HG, L-2-Hydroxyglutarate]
Emission ratio (100 μM L-2-HG, 45 min): 1.032 and 1.026 and 1.029
Emission ratio (100 μM L-2-HG, 50 min): 1.0383 and 1.034 and 1.036
Emission ratio (100 μM L-2-HG, 55 min): 1.032 and 1.026 and 1.035
Emission ratio (100 μM L-2-HG, 60 min): 1.021 and 1.025 and 1.037
Emission ratio (100 μM L-2-HG, 65 min): 1.0313 and 1.027 and 1.042
Emission ratio (100 μM L-2-HG, 70 min): 1.0328 and 1.039 and 1.045
Emission ratio (100 μM L-2-HG, 75 min): 1.033 and 1.036 and 1.056
Emission ratio (100 μM L-2-HG, 80 min): 1.038 and 1.023 and 1.047
Emission ratio (100 μM L-2-HG, 85 min): 1.027 and 1.0315 and 1.0551
Emission ratio (100 μM L-2-HG, 90 min): 1.039 and 1.022 and 1.053
Emission ratio (200 μM L-2-HG, 0 min): 0.9917 and 0.9725 and 0.9805
Emission ratio (200 μM L-2-HG, 5 min): 1.014 and 1.003 and 1.0079
Emission ratio (200 μM L-2-HG, 10 min): 1.023 and 1.0171 and 1.02
Emission ratio (200 μM L-2-HG, 15 min): 1.025 and 1.029 and 1.038
Emission ratio (200 μM L-2-HG, 20 min): 1.048 and 1.05 and 1.039
Emission ratio (200 μM L-2-HG, 25 min): 1.049 and 1.058 and 1.042
Emission ratio (200 μM L-2-HG, 30 min): 1.046 and 1.049 and 1.051
Emission ratio (200 μM L-2-HG, 35 min): 1.046 (2×) and 1.055
Emission ratio (200 μM L-2-HG, 40 min): 1.05 and 1.054 and 1.06
Emission ratio (200 μM L-2-HG, 45 min): 1.052 and 1.0481 and 1.064
Emission ratio (200 μM L-2-HG, 50 min): 1.061 and 1.056 and 1.069
Emission ratio (200 μM L-2-HG, 55 min): 1.06 and 1.0497 and 1.072
Emission ratio (200 μM L-2-HG, 60 min): 1.062 and 1.046 and 1.073
Emission ratio (200 μM L-2-HG, 65 min): 1.05 and 1.055 and 1.074
Emission ratio (200 μM L-2-HG, 70 min): 1.061 and 1.042 and 1.07
Emission ratio (200 μM L-2-HG, 75 min): 1.068 and 1.046 and 1.072
Emission ratio (200 μM L-2-HG, 80 min): 1.063 and 1.037 and 1.071
Emission ratio (200 μM L-2-HG, 85 min): 1.058 and 1.051 and 1.076
Emission ratio (200 μM L-2-HG, 90 min): 1.065 and 1.04 and 1.07
Emission ratio (1 mM L-2-HG, 0 min): 1.009 and 0.986 and 0.9798
Emission ratio (1 mM L-2-HG, 5 min): 1.043 and 1.0226 and 1.019
Emission ratio (1 mM L-2-HG, 10 min): 1.061 and 1.055 and 1.04
Emission ratio (1 mM L-2-HG, 15 min): 1.087 and 1.082 and 1.067
Emission ratio (1 mM L-2-HG, 20 min): 1.121 and 1.102 and 1.088
Emission ratio (1 mM L-2-HG, 25 min): 1.134 and 1.124 and 1.105
Emission ratio (1 mM L-2-HG, 30 min): 1.1596 and 1.147 and 1.142
Emission ratio (1 mM L-2-HG, 35 min): 1.168 and 1.165 and 1.162
Emission ratio (1 mM L-2-HG, 40 min): 1.202 and 1.191 and 1.172
Emission ratio (1 mM L-2-HG, 45 min): 1.22 and 1.2003 and 1.196
Emission ratio (1 mM L-2-HG, 50 min): 1.242 and 1.221 and 1.214
Emission ratio (1 mM L-2-HG, 55 min): 1.254 and 1.245 and 1.226
Emission ratio (1 mM L-2-HG, 60 min): 1.262 and 1.251 and 1.2291
Emission ratio (1 mM L-2-HG, 65 min): 1.264 and 1.242 and 1.229
Emission ratio (1 mM L-2-HG, 70 min): 1.261 and 1.241 and 1.2295
Emission ratio (1 mM L-2-HG, 75 min): 1.265 and 1.246 and 1.229
Emission ratio (1 mM L-2-HG, 80 min): 1.265 and 1.238 and 1.24
Emission ratio (1 mM L-2-HG, 85 min): 1.257 and 1.244 and 1.238
Emission ratio (1 mM L-2-HG, 90 min): 1.253 and 1.243 (2×)
Emission ratio (2 mM L-2-HG, 0 min): 1.001 and 0.9869 and 0.9858
Emission ratio (2 mM L-2-HG, 5 min): 1.042 and 1.028 and 1.0185
Emission ratio (2 mM L-2-HG, 10 min): 1.085 and 1.067 and 1.059
Emission ratio (2 mM L-2-HG, 15 min): 1.125 and 1.11 and 1.101
Emission ratio (2 mM L-2-HG, 20 min): 1.179 and 1.162 and 1.146
Emission ratio (2 mM L-2-HG, 25 min): 1.241 and 1.208 and 1.197
Emission ratio (2 mM L-2-HG, 30 min): 1.288 and 1.254 and 1.257
Emission ratio (2 mM L-2-HG, 35 min): 1.301 and 1.278 and 1.2733
Emission ratio (2 mM L-2-HG, 40 min): 1.333 and 1.31 and 1.292
Emission ratio (2 mM L-2-HG, 45 min): 1.337 and 1.329 and 1.307
Emission ratio (2 mM L-2-HG, 50 min): 1.347 and 1.335 and 1.324
Emission ratio (2 mM L-2-HG, 55 min): 1.344 and 1.327 and 1.336
Emission ratio (2 mM L-2-HG, 60 min): 1.352 and 1.339 and 1.329
Emission ratio (2 mM L-2-HG, 65 min): 1.34 and 1.338 and 1.3346
Emission ratio (2 mM L-2-HG, 70 min): 1.362 and 1.355 and 1.346
Emission ratio (2 mM L-2-HG, 75 min): 1.365 and 1.3372 and 1.347
Emission ratio (2 mM L-2-HG, 80 min): 1.351 and 1.344 (2×)
Emission ratio (2 mM L-2-HG, 85 min): 1.353 and 1.367 and 1.357
Emission ratio (2 mM L-2-HG, 90 min): 1.364 and 1.351 and 1.361
Emission ratio (10 mM L-2-HG, 0 min): 0.9626 and 0.9634 and 0.9687
Emission ratio (10 mM L-2-HG, 5 min): 1.087 and 1.079 and 1.06
Emission ratio (10 mM L-2-HG, 10 min): 1.2277 and 1.2165 and 1.18
Emission ratio (10 mM L-2-HG, 15 min): 1.322 and 1.305 and 1.285
Emission ratio (10 mM L-2-HG, 20 min): 1.375 and 1.367 and 1.334
Emission ratio (10 mM L-2-HG, 25 min): 1.391 and 1.39 and 1.353
Emission ratio (10 mM L-2-HG, 30 min): 1.418 and 1.395 and 1.38
Emission ratio (10 mM L-2-HG, 35 min): 1.427 and 1.411 and 1.3928
Emission ratio (10 mM L-2-HG, 40 min): 1.439 and 1.431 and 1.3904
Emission ratio (10 mM L-2-HG, 45 min): 1.426 and 1.425 and 1.4013
Emission ratio (10 mM L-2-HG, 50 min): 1.427 and 1.438 and 1.392
Emission ratio (10 mM L-2-HG, 55 min): 1.431 (2×) and 1.402
Emission ratio (10 mM L-2-HG, 60 min): 1.432 and 1.435 and 1.413
Emission ratio (10 mM L-2-HG, 65 min): 1.425 and 1.426 and 1.404
Emission ratio (10 mM L-2-HG, 70 min): 1.4381 and 1.438 and 1.417
Emission ratio (10 mM L-2-HG, 75 min): 1.426 and 1.4264 and 1.415
Emission ratio (10 mM L-2-HG, 80 min): 1.4478 and 1.43 and 1.416
Emission ratio (10 mM L-2-HG, 85 min): 1.446 and 1.432 and 1.415
Emission ratio (10 mM L-2-HG, 90 min): 1.432 and 1.427 and 1.418
